The record followed here is BindingDB's records for doi:10.1021/jm00062a011 (Smithkline Beecham Pharmaceuticals, 1993).

Structures are written as SMILES. pIC50: −log10 of the molar value. Structures can show the parent of a compound that is named as a salt.

The target in this assay is cGMP-specific 3',5'-cyclic phosphodiesterase PDE5 (Sus scrofa). The assay can be described thus: In vitro inhibition of PDE-V isolated from porcine pulmonary artery.

By pIC50 is commonly meant the IC50 on a negative log10 scale, so that one unit is a factor of ten. As for `CCCCOc1ccccc1-c1nc2ncccc2[nH]1` [2-(2-Butoxy-phenyl)-3H-imidazo[4,5-b]pyridine], the negative-log IC50 (pIC50) was 6.00. `CCCCCCOc1ccccc1-c1nc2ncccc2[nH]1` [2-(2-Hexyloxy-phenyl)-3H-imidazo[4,5-b]pyridine]: the pIC50 was 5.40. The figure for `c1ccc(-c2nc3ncccc3[nH]2)c(OC2CCCC2)c1` [2-(2-Cyclopentyloxy-phenyl)-3H-imidazo[4,5-b]pyridine] is 4.82; for `COc1cc([S+](C)[O-])ccc1-c1nc2cnccc2[nH]1` (stereo unspecified) [2-(4-Methanesulfinyl-2-methoxy-phenyl)-1H-imidazo[4,5-c]pyridine(isomazole)] it is 4.24. `ClCCCOc1ccccc1-c1nc2ncccc2[nH]1` [2-[2-(3-Chloro-propoxy)-phenyl]-3H-imidazo[4,5-b]pyridine] gave a pIC50 of 5.70. For the compound `CCCCCOc1ccccc1-c1nc2ncccc2[nH]1` [2-(2-Pentyloxy-phenyl)-3H-imidazo[4,5-b]pyridine], the pIC50 was 6.00. Compound `COc1ccccc1-c1nc2ccncc2[nH]1` [2-(2-Methoxy-phenyl)-3H-imidazo[4,5-c]pyridine; hydrochloride] gave a pIC50 of 4.38. In the case of `CCCOc1ccccc1-c1cn2cccnc2n1` [2-(2-Propoxy-phenyl)-imidazo[1,2-a]pyrimidine], the pIC50 is 4.48. Compound `c1ccc(COc2ccccc2-c2nc3ncccc3[nH]2)cc1` [2-(2-Benzyloxy-phenyl)-3H-imidazo[4,5-b]pyridine] gave a pIC50 of 5.40. In turn, `OCCCOc1ccccc1-c1nc2ncccc2[nH]1` [3-[2-(3H-Imidazo[4,5-b]pyridin-2-yl)-phenoxy]-propan-1-ol] gave a pIC50 of 4.62.

`CCOc1ccccc1-c1nc2ncccc2[nH]1` [2-(2-Ethoxy-phenyl)-3H-imidazo[4,5-b]pyridine] had a pIC50 of 4.74. The compound `Oc1ccccc1-c1nc2ncccc2[nH]1` [2-(3H-Imidazo[4,5-b]pyridin-2-yl)-phenol] had a pIC50 of 4.43. `CCCCCOc1ccccc1-c1nc2ccncc2[nH]1` [2-(2-Pentyloxy-phenyl)-3H-imidazo[4,5-c]pyridine; hydrochloride] showed a pIC50 of 6.00. The figure for `c1ccc(-c2nc3ncccc3[nH]2)c(OCC2CC2)c1` [2-(2-Cyclopropylmethoxy-phenyl)-3H-imidazo[4,5-b]pyridine] is 5.22; for `CCCNc1ccccc1-c1nc2ncccc2[nH]1` [[2-(3H-Imidazo[4,5-b]pyridin-2-yl)-phenyl]-propyl-amine] it is 4.59; for `CCCSc1ccccc1-c1nc2ncccc2[nH]1` [2-(2-Propylsulfanyl-phenyl)-3H-imidazo[4,5-b]pyridine] it is 4.62.
